Test results taken from patent US8697081B2, “Method of modulating neovascularization” (The Regents of the University of Michigan, priority 2008, dated 2014).

Legend:
[1] = test system: Human umbilical vein endothelial cells; assay: Atomic force microscopy micro-indentation of pericellular ECM rigidity; format: cell-based; conditions: VEGF/HGF-stimulated, fibrin gels
Description: Since ECM rigidity regulates cytoskeletal remodeling and force generation, and consequently cell function (Engler et al., 2006. Cell, 126: 677-689; Wozniak and Chen, supra; Zajac and Discher, 2008. Curr. Opin. Cell Biol., 20: 609-615), atomic force microscopy micro-indentation (AFM) was employed to quantify endothelial cell-dependent changes in ECM remodeling. AFM was performed by first washing fibrin gels with phosphate buffered saline (PBS) after removing culture medium. Samples were mechanically characterized using an Asylum MFP-3D atomic force microscope (Asylum Research, Santa Barbara, Calif.). Micro-indentation was performed using a sphere-tipped probe (Novascan, Ames, Iowa) with a sphere diameter of 5 μm and a nominal spring constant of ˜60 pN/nm. The cantilever spring constant was confirmed by thermal fluctuation method (Thundat et al., 1994. Applied Physics Letters, 64: 2894-2896). The AFM system was calibrated by following the manufacturer's recommended procedure before each indentation measurement. AFM micro-indentation was performed in PBS solution at room temperature. Individual force-indentation profile was acquired at an indentation rate of 2 μm/s using deflection trigger mode with a trigger value of 200 nm. […] Shear modulus at each position was calculated from fitting force-indentation data using a Hertz sphere model (Richert et al., 2004, Biomacromolecules, 5: 1908-1916).

[2] = test system: chorioallantoic membrane (CAM) of live chicks; assay: Chick chorioallantoic membrane (CAM) angiogenesis into 3-D matrices; format: in vivo; conditions: 3 days, VEGF and HGF, versus Del29 control
Description: The functional role for fibrillogenesis in tissue sites undergoing active angiogenesis in vivo was assessed. To this end, 3-D composite gels of fibrin and type I collagen were placed atop the chorioallantoic membrane (CAM) of live chicks, and angiogenesis was initiated in the presence of FUD or the Del29 peptide control. In particular, 3-D matrices of type I collagen or a type I collagen/fibrin composite matrix were cast in transwell tissue culture inserts (24 well size) perforated with a 25 gauge needle. A 30 μl Matrigel (BD Biosciences) reservoir was placed atop the matrix containing 200 ng VEGF, 100 ng HGF, and either Del29 or FUD. The entire apparatus was placed atop the dropped CAM of 10-11 day old fertile chicken eggs. Following incubation in a humidified incubator at 37° for 3 days, the matrices were harvested. Vascular ingrowth was monitored by light microscopy following H&E staining. In some experiments, FITC-Fn (McKeown-Longo and Mosher. 1985. J. Cell. Biol., 100(2): 364-74) was supplemented in the matrices during the culture period, and Fn fibrillogenesis within the gels was monitored by confocal laser microscopy.

[3] = test system: β-actin, α-actinin, and MLC2; assay: Western blot with semi-quantitative densitometry of cytoskeletal proteins; format: cell-based, human; conditions: 3-D fibrin gel
Text: Tractional forces exerted at cell-matrix adhesion sites require the activation of an actinomyosin motor complex whose assembly is tightly linked to actin cytoskeleton organization, non-muscle myosin II isoform expression, and the rigidity of the surrounding substratum (Meshel et al. 2005. Nat. Cell Biol., 7(2): 157-164; Engler, supra; and Even-Ram, supra; Yoneda et al. 2007. Mol. Cell. Biol., 19(1): 66-75). β-actin, α-actinin, myosin light chain-2 (MLC2), and non-muscle myosin IIA and IIB isoform (NMMIIA and NMMIIB, respectively) protein levels were monitored in 3-D embedded endothelial cells to determine the effect of Fn matrix inhibition on the expression of gene products critical to the generation of tractional forces. Endothelial cells were cultured in 3-D fibrin gels for 2 days with either the FUD peptide or the control Del29 peptide. Levels of β-actin, α-actinin, NMMIIA, NMMIIB, and MLC2 were measured by Western blot, with ERK1/2 serving as the loading control. As assessed by semi-quantitative densitometry, the levels of β-actin, actinin and MLC2 were 58±7% (n=5; mean±1 SD), 62% (n=2), and 60±12% (n=3; mean±1 SD) of control, respectively.

Molecule | 3-D pericellular rigidity (shear modulus by AFM) [1] | Fn matrix assembly in ECM construct [2] | neovessel formation (vascular ingrowth) [2] | level of actinin ([3]; 2 days, control Del29 peptide, n=2) | level of MLC2 ([3]; 2 days, control Del29 peptide, n=3, mean±1 SD) | level of β-actin ([3]; 2 days, control Del29 peptide, n=5, mean±1 SD) | levels of β-actin, α-actinin, and MLC2 ([3]; growth factor-stimulated)
CNC(=O)[C@H](Cc1c[nH]c2ccccc12)NC(=O)[C@@H](CC(=O)NO)CC(C)C [GM6001] | significantly lower |  |  |  |  |  | 
FUD: 49-residue functional upstream domain of Streptococcus pyogenes F1 adhesion protein, SEQ ID NO: 10; fibronectin fibril assembly inhibitor (KDQSPLAGESGETEYITEVYGNQQNPVDIDKKLPNETGFSGNMVETEDT; Streptococcus pyogenes; Functional Upstream Domain (FUD) of F1 adhesion protein) | significantly lower | almost completely inhibited | ablated | 62 % of control | 60±12 % of control | 58±7 % of control | markedly reduced
